Structures are written as SMILES. Where a name gives a salt, the structure may show the parent alone.

The nature of the data set: in vitro. The conditions noted are these: human, hek293t cells.
A word on the viability: it is a read-out of living cells in per cent, often relative to untreated cells. With `COc1ccccc1NC(=O)c1ccc(NC(=O)CCl)cc1` [4-O17, 4-(2-chloroacetamido)-N-(2-methoxyphenyl)benzamide], the viability at 48 h, 25 µM is -0.113%.
`O=C(CCl)N1N=C(c2cccs2)CC1c1cccs1` (stereo not drawn) [4-O18, 1-[3,5-bis(thiophen-2-yl)-4,5-dihydro-1H-pyrazol-1-yl]-2-chloroethan-1-one]: the viability at 48 h, 25 µM came out at 0.013%.
With `O=C(CCl)NCC1(c2ccccc2)CCC1` [4-O19, 2-chloro-N-[(1-phenylcyclobutyl)methyl]acetamide] the figure was 0.976%; with `O=C(CCl)N1N=C(c2cccs2)CC1c1ccc(F)cc1` (stereo not drawn) [4-O20, 2-chloro-1-[5-(4-fluorophenyl)-3-(thiophen-2-yl)-4,5-dihydro-1H-pyrazol-1-yl]ethan-1-one], 0.502%; with `Cc1c(C#N)c(NC(=O)CCl)n(Cc2ccc(F)cc2)c1C` [4-O21, 2-chloro-N-{3-cyano-1-[(4-fluorophenyl)methyl]-4,5-dimethyl-1H-pyrrol-2-yl}acetamide], 0.102%.
Consider `Cc1ccc(C2=NN(C(=O)CCl)C(c3cccs3)C2)cc1` (stereo not drawn) [4-O22, 2-chloro-1-[3-(4-methylphenyl)-5-(thiophen-2-yl)-4,5-dihydro-1H-pyrazol-1-yl]ethan-1-one], for which the viability at 48 h, 25 µM is -0.0957%.
The figure for `CCc1ccc(NC(=O)CCl)cc1` [4-P03, 2-chloro-N-(4-ethylphenyl)acetamide] is 0.338%; for `NC(=O)c1ccc(NC(=O)CCl)cc1` [4-P04, 4-(2-chloroacetamido)benzamide] it is 0.712%.
The figure for `CCc1ccccc1NC(=O)CN(C)C(=O)C(C)Cl` (stereo not drawn) [4-P05, 2-chloro-N-{[(2-ethylphenyl)carbamoyl]methyl}-N-methylpropanamide] is 81%.
With `O=C(CCl)Nc1ncc(Cc2ccccc2Cl)s1` [4-P07, 2-chloro-N-{5-[(2-chlorophenyl)methyl]-1,3-thiazol-2-yl}acetamide] the figure was -0.245%.
On to `O=C(CCl)Nc1cccc(S(=O)(=O)N2CCOCC2)c1` [4-P08, 2-chloro-N-[3-(morpholine-4-sulfonyl)phenyl]acetamide], for which the viability at 48 h, 25 µM was 0.715%.
The figure for `CCN(CC)S(=O)(=O)c1cc(NC(=O)C(C)Cl)ccc1C` (stereo not drawn) [4-P09, 2-chloro-N-[3-(diethylsulfamoyl)-4-methylphenyl]propanamide] is 69.6%.
The figure for `CCN(C(=O)CCl)c1c(N)n(Cc2ccccc2)c(=O)[nH]c1=O` [4-P10, N-(6-amino-1-benzyl-2,4-dioxo-1,2,3,4-tetrahydropyrimidin-5-yl)-2-chloro-N-ethylacetamide] is 65.4%; for `CC(Cl)C(=O)NCc1cccs1` (stereo not drawn) [4-P11, 2-chloro-N-[(thiophen-2-yl)methyl]propanamide] it is 68.4%.
Regarding `NS(=O)(=O)c1ccc(CNC(=O)CCl)cc1` [4-P12, 2-chloro-N-[(4-sulfamoylphenyl)methyl]acetamide], the viability at 48 h, 25 µM is 0.879%.
`O=C(CCl)NSc1ccc([N+](=O)[O-])cc1` [4-P13, 2-chloro-N-[(4-nitrophenyl)sulfanyl]acetamide]: the viability at 48 h, 25 µM was 3.88%.
With `O=C(CCl)Nc1ccc(Cl)c(S(=O)(=O)N2CCCCC2)c1` [4-P14, 2-chloro-N-[4-chloro-3-(piperidine-1-sulfonyl)phenyl]acetamide] the figure was -0.167%; with `CCOc1ccc(S(=O)(=O)N2CCN(C(=O)CCl)CC2)cc1` [4-P15, 2-chloro-1-[4-(4-ethoxybenzenesulfonyl)piperazin-1-yl]ethan-1-one], 0.587%.
With `CCN(C(=O)C(C)Cl)c1ccccc1` (stereo not drawn) [4-P16, 2-chloro-N-ethyl-N-phenylpropanamide] the figure was 109%; with `COc1ccc([N+](=O)[O-])cc1NC(=O)CCl` [4-P17, 2-chloro-N-(2-methoxy-5-nitrophenyl)acetamide], 0.714%; with `COc1ccc(CN2CCN(C(=O)CCl)CC2)cc1F` [4-P18, 2-chloro-1-{4-[(3-fluoro-4-methoxyphenyl)methyl]piperazin-1-yl}ethan-1-one hydrochloride], 0.482%.
For `O=C(CCl)Nc1cccc(Oc2ccccc2)c1` [4-P19, 2-chloro-N-(3-phenoxyphenyl)acetamide], the viability at 48 h, 25 µM was 0.14%.
For `Cn1cc(S(=O)(=O)N2CCOCC2)cc1C(=O)NC(=O)CCl` [4-P20, N-(2-chloroacetyl)-1-methyl-4-(morpholine-4-sulfonyl)-1H-pyrrole-2-carboxamide], the viability at 48 h, 25 µM came out at 106%.
For the molecule `CCS(=O)(=O)c1ccc(NC(=O)CCl)c(O)c1` [4-P21, 2-chloro-N-[4-(ethanesulfonyl)-2-hydroxyphenyl]acetamide], the viability at 48 h, 25 µM was determined as 73.2%.
For `COc1ccc(C2CCCN2C(=O)CCl)c(OC)c1` (stereo not drawn) [4-P22, 2-chloro-1-[2-(2,4-dimethoxyphenyl)pyrrolidin-1-yl]ethan-1-one], the viability at 48 h, 25 µM was 0.348%.
With `COc1cccc(NC(=O)CN(C)C(=O)CCl)c1` [5-A03, 2-chloro-N-{[(3-methoxyphenyl)carbamoyl]methyl}-N-methylacetamide] the figure was 0.139%; with `Cc1nc2n(n1)CCN(C(=O)C(C)Cl)C2` (stereo not drawn) [5-A04, 2-chloro-1-{2-methyl-5H,6H,7H,8H-[1,2,4]triazolo[1,5-a]pyrazin-7-yl}propan-1-one], 107%.
The figure for `CCC(C)(C)C1CCc2c(sc(NC(=O)CCl)c2C#N)C1` (stereo not drawn) [5-A05, 2-chloro-N-[3-cyano-6-(2-methylbutan-2-yl)-4,5,6,7-tetrahydro-1-benzothiophen-2-yl]acetamide] is -0.0335%; for `CN(CCC1CCCCC1)C(=O)CCl` [5-A06, 2-chloro-N-(2-cyclohexylethyl)-N-methylacetamide] it is 0.304%; for `CC(Cl)C(=O)Nc1cccc(S(=O)(=O)N(C)C)c1` (stereo not drawn) [5-A07, 2-chloro-N-[3-(dimethylsulfamoyl)phenyl]propanamide] it is 55.5%.
With `O=C(CCl)N1CCN(C(=O)CC(F)(F)F)CC1` [5-A08, 1-[4-(2-chloroacetyl)piperazin-1-yl]-3,3,3-trifluoropropan-1-one] the figure was 0.522%; with `O=C(CCl)NCC1CC(=O)N(c2ccccc2)C1` (stereo not drawn) [5-A09, 2-chloro-N-[(5-oxo-1-phenylpyrrolidin-3-yl)methyl]acetamide], 0.822%; with `CCn1nc(C)c(CN(C)C(=O)CCl)c1C` [5-A10, 2-chloro-N-[(1-ethyl-3,5-dimethyl-1H-pyrazol-4-yl)methyl]-N-methylacetamide], 1.55%.
Take `O=C(CCl)NC1CCC(O)(c2cccc(F)c2)CC1` (stereo not drawn) [5-A11, 2-chloro-N-[4-(3-fluorophenyl)-4-hydroxycyclohexyl]acetamide]: the viability at 48 h, 25 µM worked out at 0.51%.
As to `CC(C)CN(C(=O)CCl)c1cnn(-c2ccccn2)c1` [5-A12, 2-chloro-N-(2-methylpropyl)-N-[1-(pyridin-2-yl)-1H-pyrazol-4-yl]acetamide], the viability at 48 h, 25 µM is 0.323%.
The figure for `Cc1cccc(C)c1NC(=O)CN(C)C(=O)CCl` [5-A13, 2-chloro-N-{[(2,6-dimethylphenyl)carbamoyl]methyl}-N-methylacetamide] is 0.212%; for `Cc1nn(C)c(C)c1CN(C(=O)CCl)C1CCCCC1C` (stereo not drawn) [5-A14, 2-chloro-N-(2-methylcyclohexyl)-N-[(1,3,5-trimethyl-1H-pyrazol-4-yl)methyl]acetamide] it is 0.467%; for `COc1ccc(CN2CCN(C(=O)CCl)CC2)cc1` [5-A15, 2-chloro-1-{4-[(4-methoxyphenyl)methyl]piperazin-1-yl}ethan-1-one hydrochloride] it is -0.117%.
The figure for `Cn1nnc(CN(C(=O)CCl)C2CCCCCCC2)n1` [5-A16, 2-chloro-N-cyclooctyl-N-[(2-methyl-2H-1,2,3,4-tetrazol-5-yl)methyl]acetamide] is 0.784%; for `CC(NC(=O)CCl)c1ccc(-c2ccccc2)cc1` (stereo not drawn) [5-A17, N-(1-{[1,1'-biphenyl]-4-yl}ethyl)-2-chloroacetamide] it is 123%; for `CN(C(=O)CCl)C1CCN(c2ccccc2F)C1=O` (stereo not drawn) [5-A18, 2-chloro-N-[1-(2-fluorophenyl)-2-oxopyrrolidin-3-yl]-N-methylacetamide] it is 0.916%.
As to `CC(Cl)C(=O)NCc1ccc(F)cc1` (stereo not drawn) [5-A19, 2-chloro-N-[(4-fluorophenyl)methyl]propanamide], the viability at 48 h, 25 µM was determined as 76.2%.
On to `O=C(CCl)N1CCn2c(cc3ccccc32)C1` [5-A20, 2-chloro-1-{1H,2H,3H,4H-pyrazino[1,2-a]indol-2-yl}ethan-1-one], for which the viability at 48 h, 25 µM is 0.499%.
On to `CC(Cl)C(=O)NC(c1ccccc1)c1ccccc1` (stereo not drawn) [5-A21, 2-chloro-N-(diphenylmethyl)propanamide], for which the viability at 48 h, 25 µM worked out at 85.8%.
In the case of `Cn1cc(NC(=O)CCl)c(C(=O)NC2CCC2)n1` [5-A22, 4-(2-chloroacetamido)-N-cyclobutyl-1-methyl-1H-pyrazole-3-carboxamide], the viability at 48 h, 25 µM amounted to 2.84%.
The figure for `C[C@H]1CN(C(=O)CCl)Cc2cccn21` [5-B03, 2-chloro-1-[(4S)-4-methyl-1H,2H,3H,4H-pyrrolo[1,2-a]pyrazin-2-yl]ethan-1-one] is 0.688%.
With `O=C(CCl)Nc1c(Cl)cccc1C(F)(F)F` [5-B04, 2-chloro-N-[2-chloro-6-(trifluoromethyl)phenyl]acetamide] the figure was 1.62%.
The figure for `C=CCN(Cc1cccs1)C(=O)CCl` [5-B06, 2-chloro-N-(prop-2-en-1-yl)-N-[(thiophen-2-yl)methyl]acetamide] is 0.0461%; for `COCc1nc(C2CCCCCN2C(=O)CCl)no1` (stereo not drawn) [5-B07, 2-chloro-1-{2-[5-(methoxymethyl)-1,2,4-oxadiazol-3-yl]azepan-1-yl}ethan-1-one] it is 1.24%.
With `CCN(C(=O)CCl)c1cccc2ccccc12` [5-B08, 2-chloro-N-ethyl-N-(naphthalen-1-yl)acetamide], the viability at 48 h, 25 µM is 0.156%.
Turning to `CC(Cl)C(=O)NCc1ccco1` (stereo not drawn) [5-B09, 2-chloro-N-[(furan-2-yl)methyl]propanamide], the viability at 48 h, 25 µM stood at 96.6%.

These data come from PMC11995724, “Antibiotic target discovery by integrated phenotypic and activity-based profiling of electrophilic fragments” (Cell chemical biology, 2025).
